Test results from patent publication US20210369753A1, “NUTRIENT COMPOSITION ABLE TO INHIBIT QUORUM SENSING” (Brilliant Lab LLC, priority 2020, published 2021).
Like-named read-outs stand apart in the source and are kept apart here.

Experiments:
C. violaceum = settings: cited from earlier work
S. aureus = settings: cited from earlier work
P. aeruginosa = settings: cited from earlier work
P. fluorescens = settings: cited from earlier work
E. coli = E. coli O157:H7; cited from earlier work
Acinetobacter = settings: cited from earlier work
Burkholderia = settings: cited from earlier work
[1] = system: Chromobacterium violaceum (CV026); assay: Halo assay (anti-quorum sensing); format: cell-based; settings: CV026 agar plate; for Catechin at the highest concentrations
C. violaceum (CV026) = assay: Violaceum assay (modified, butanol extraction); format: cell-based, Chromobacterium violaceum
Description: SUMMARY OF METHODS: (+)-Catechin was used as a positive control in the halo and violaceum assays. Varying concentrations of the composition of EXAMPLE XI or catechin mixed with C. violaceum were added to an agar plate and the generated halo was analyzed both by visual inspection and measurement. Method for Violaceum assays included adding either the composition of EXAMPLE XI or catechin to a solution of C. violaceum (strain CV026). After workup, the solutions were transferred to a 96 well plate and optical density was recorded at 590 nm. Optical density values were normalized to unextracted samples as a control.
Violaceum Assay: The violaceum assay was adapted from the method of Blosser, et al., Journal of Microbiological Methods 2000, 40, pp. 47-55. The model composition and Catechin were suspended/dissolved in ethanol. […] The OD600 of each culture was measured to be used to normalize violaceum levels to total biomass. […] The optical density was measured at 590 nm. The OD590 values were normalized to the biomass measurements determined for the unextracted samples.
VIOLACEUM ASSAY: The Violaceum assay was performed to further corroborate the results obtained in the Halo assay and to provide a quantitative measure of activity. This assay is based on the same principles as for the Halo assay, but since the assay is performed in solution, violaceum production can be more readily quantified. […]

[2] = system: Pseudomonas aeruginosa (ATCC 10145); assay: Pyocyanin assay; format: cell-based; settings: overnight culture, test materials in DMSO and in ethanol
[3] = system: P. aeruginosa (ATCC 10145); assay: Biofilm assay (crystal violet); format: cell-based, Pseudomonas aeruginosa; settings: 0.25-5 mg/mL, overnight, crystal violet OD 590 nm
Description: (§1) Biofilm assay: The biofilm assay was based on the method of Chong, et al. (2011). The model composition and Catechin were prepared at 100 mg/mL in ethanol. Appropriate volumes of each were added to eight replicate wells of a v-well 96-well plate to result in 0.25, 0.5, 1.25 and 5 mg/mL final concentrations for a 200 microliter final volume. The plate was air dried until all of the ethanol has evaporated. From fresh overnight cultures of P. aeruginosa (ATCC 10145) and S. aureus (ATCC 12600), solutions at OD600 of 0.1 were prepared in Nutrient broth/0.5% glucose. Two hundred microliters of the cultures were added to all wells and mixed by pipetting. The plates were covered with breathable films and incubated overnight without shaking at 37 degrees C. The cultures were removed, and the plates rinsed several times with water. Two hundred microliters of 0.1% crystal violet was added to each well and incubated at room temperature for 30 minutes. […] One hundred microliters of the solubilized crystal violet was transferred to a flat-bottom polystyrene plate and the optical density measured at 590 nm.
(§2) BIOFILM ASSAY: The composition of EXAMPLE XI was evaluated for anti-biofilm activity against Pseudomonas aeruginosa and Staphylococcus aureus. […]
(§3) The plates were incubated statically overnight. […] The crystal violet was quantified by measuring the optical density at 590 nm.

S. aureus (ATCC 12600) = assay: Biofilm assay (crystal violet); format: cell-based, Staphylococcus aureus; settings: 0.25-5 mg/mL, overnight, crystal violet OD 590 nm
Description: as §1, §2, §3

[4] = P. aeruginosa, strain not stated

O=C(O)[C@H]1O[C@@H](Oc2cc3oc(-c4ccccc4)cc(=O)c3c(O)c2O)[C@H](O)[C@@H](O)[C@@H]1O [Baicalin]
inhibition of quorum sensing (C. violaceum; C. violaceum CV026): inhibits quorum sensing
inhibition of quorum sensing (S. aureus): inhibits quorum sensing

O=C(/C=C/c1ccc(O)c(O)c1)O[C@@H]1C[C@](O)(C(=O)O)C[C@@H](O)[C@H]1O [Chlorogenic acid]
inhibition of quorum sensing (P. aeruginosa; [4]): inhibits quorum sensing

O=CC=Cc1ccccc1 [Cinnamaldehyde]
inhibition of quorum sensing (P. aeruginosa; P. aeruginosa PAO1): inhibits quorum sensing
inhibition of quorum sensing (C. violaceum; C. violaceum CV026): inhibits quorum sensing

O=C(O[C@@H]1Cc2c(O)cc(O)cc2O[C@@H]1c1cc(O)c(O)c(O)c1)c1cc(O)c(O)c(O)c1 [EGCG]
inhibition of quorum sensing (P. aeruginosa; [4]): inhibits quorum sensing

COc1ccc([C@@H]2CC(=O)c3c(O)cc(O[C@@H]4O[C@H](CO[C@@H]5O[C@@H](C)[C@H](O)[C@@H](O)[C@H]5O)[C@@H](O)[C@H](O)[C@H]4O)cc3O2)cc1O [Hesperidin]
inhibition of quorum sensing (C. violaceum; C. violaceum, strain not stated): inhibits quorum sensing
inhibition of quorum sensing (P. fluorescens): inhibits quorum sensing

O=C1C[C@@H](c2ccc(O)cc2)Oc2cc(O)cc(O)c21 [Naringenin]
inhibition of quorum sensing (P. aeruginosa; P. aeruginosa PAO1): inhibits quorum sensing

O=C(/C=C/c1ccc(O)c(O)c1)O[C@H](Cc1ccc(O)c(O)c1)C(=O)O [Rosmarinic acid]
inhibition of quorum sensing (P. aeruginosa; P. aeruginosa PAO1): inhibits quorum sensing
inhibition of quorum sensing (E. coli): inhibits quorum sensing
inhibition of quorum sensing (C. violaceum; C. violaceum 31532): inhibits quorum sensing
inhibition of quorum sensing (C. violaceum; C. violaceum CV026): inhibits quorum sensing

C[S+]([O-])CCCCN=C=S (centres unmarked) [Sulforaphane]
inhibition of quorum sensing (P. aeruginosa; [4]): inhibits quorum sensing

O=C1OCC2OC(=O)c3cc(O)c(O)c(O)c3-c3c(O)c(O)c(O)c4c3C(=O)OC(C2OC(=O)c2cc(O)c(O)c(O)c2-c2c1cc(O)c(O)c2O)C1OC(=O)c2c-4c(O)c(O)c(O)c2C1O (centres unmarked) [Vescalagin]
inhibition of quorum sensing (P. aeruginosa; [4]): inhibits quorum sensing
inhibition of quorum sensing (Acinetobacter): inhibits quorum sensing
inhibition of quorum sensing (Burkholderia): inhibits quorum sensing

(+)-Catechin
bacterial growth in halo assay [1]: antibiotic effect inhibiting growth of the bacteria
inhibition of violaceum production (quorum sensing) (C. violaceum (CV026); highest concentration tested, 5 mg/mL, OD590 normalized to biomass): over 85%
inhibition of violaceum production (C. violaceum (CV026); three lowest concentrations tested (1.25, 0.5 and 0.25 mg/mL)): 10-25%
effect on pyocyanin production [2]: slightly enhances production
anti-biofilm activity [3]: similar
anti-biofilm activity (S. aureus (ATCC 12600)): similar
